# Several values for one entry are separate records, joined by “and”; a condition that tells them apart may be missing. Equal entries are not always repeated.
# Key:
# grasses = assay: Grass control in QPE-tolerant wheat treated with herbicides; assay type: in vivo
# Procedure: (§1) Yield of QPE-tolerant wheat in bushels per acre was measured under the following conditions: where no QPE was applied, where QPE was applied alone, where one or more broadleaf herbicides were applied, and where a combination of a QPE source and a broadleaf herbicide were applied together. For each test condition, the level of both grass control and broadleaf control was recorded. Finally, the application rate of each active substance was recorded. One QPE source is Aggressor™ which comprises Quizalofop-P-ethyl 10.3%.
# broadleaf weeds = assay: Broadleaf weed control in QPE-tolerant wheat treated with herbicides; assay type: in vivo
# Procedure: as §1
# QPE-tolerant wheat = assay: Yield of QPE-tolerant wheat in bushels per acre; assay type: in vivo
# Procedure: as §1
# [1] = soil; cited from earlier work
# [2] = Treatment B Rate/Acre 1.00 lb ai/acre
# [3] = Treatment B Rate/Acre .50 lb ai/acre
# [4] = Treatment B Rate/Acre 3 fl oz/acre
# [5] = Treatment B Rate/Acre 4 fl oz/acre
# [6] = Treatment B Rate/Acre 5 fl oz/acre
# [7] = Treatment B Rate/Acre 2 oz/acre
# [8] = Treatment B Rate/Acre 4.75/acre
# [9] = Treatment B Rate/Acre .90 oz/acre
# [10] = Treatment B Rate/Acre .60 oz/acre
# [11] = Treatment B Rate/Acre .66 oz/acre
# [12] = Treatment B Rate/Acre .30 oz/acre
compound,measurement,setting,value
"CNC.O=C(O)COc1ccc(Cl)cc1Cl [2,4-D Amine]",Grass Control,grasses; [2],0%
same,Grass Control,grasses; [3],0%
same,Broadleaf Weed Control,broadleaf weeds; [2],90%
same,Broadleaf Weed Control,broadleaf weeds; [3],75%
same,Yield,QPE-tolerant wheat; [2],56.8 Bu/acre
same,Yield,QPE-tolerant wheat; [3],55.7 Bu/acre
COc1c(Cl)ccc(Cl)c1C(=O)O [Dicamba],Grass Control,grasses; [4],0%
same,Grass Control,grasses; [5],0%
same,Grass Control,grasses; [6],0%
same,Broadleaf Weed Control,broadleaf weeds; [4],90%
same,Broadleaf Weed Control,broadleaf weeds; [5],93%
same,Broadleaf Weed Control,broadleaf weeds; [6],96%
same,Yield,QPE-tolerant wheat; [4],56.7 Bu/acre
same,Yield,QPE-tolerant wheat; [5],57.9 Bu/acre
same,Yield,QPE-tolerant wheat; [6],58.4 Bu/acre
COc1nn(C(=O)NS(=O)(=O)c2ccccc2OC(F)(F)F)c(=O)n1C [Flucarbazone],Grass Control,grasses; [7],65%
same,Broadleaf Weed Control,broadleaf weeds; [7],55%
same,Yield,QPE-tolerant wheat; [7],67.3 Bu/acre
CNC.Cc1cc(Cl)ccc1OCC(=O)O [MCPA Amine],Grass Control,grasses; [2],0%
same,Grass Control,grasses; [3],0%
same,Broadleaf Weed Control,broadleaf weeds; [2],93%
same,Broadleaf Weed Control,broadleaf weeds; [3],78%
same,Yield,QPE-tolerant wheat; [2],56.9 Bu/acre
same,Yield,QPE-tolerant wheat; [3],52.4 Bu/acre
COc1cc(OC)nc(NC(=O)NS(=O)(=O)c2cc(CNS(C)(=O)=O)ccc2C(=O)O)n1 [Mesosulfuron],Grass Control,grasses; [8],35%
same,Broadleaf Weed Control,broadleaf weeds; [8],50%
same,Yield,QPE-tolerant wheat; [8],60.4 Bu/acre
CCCOc1nn(C(=O)[N-]S(=O)(=O)c2ccccc2C(=O)OC)c(=O)n1C.[Na+] [Propoxycarbazone],Grass Control,grasses; [9],45%
same,Broadleaf Weed Control,broadleaf weeds; [9],65%
same,Yield,QPE-tolerant wheat; [9],63.2 Bu/acre
COc1nc(C)nc(NC(=O)NS(=O)(=O)c2ccccc2CCC(F)(F)F)n1 [Prosulfuron],Grass Control,grasses; [10],0%
same,Broadleaf Weed Control,broadleaf weeds; [10],85%
same,Yield,QPE-tolerant wheat; [10],59.2 Bu/acre
COc1cc(OC)n2nc(NS(=O)(=O)c3c(C(F)(F)F)ccnc3OC)nc2n1 [Pyroxsulam],Grass Control,grasses; [7],70%
same,Broadleaf Weed Control,broadleaf weeds; [7],30%
same,Yield,QPE-tolerant wheat; [7],60.3 Bu/acre
CCOC(=O)[C@@H](C)Oc1ccc(Oc2cnc3cc(Cl)ccc3n2)cc1 [Quizalofop-p-ethyl],Koc,[1],510 and 570
CCS(=O)(=O)c1nc2ccccn2c1S(=O)(=O)NC(=O)Nc1nc(OC)cc(OC)n1 [Sulfosulfuron],Grass Control,grasses; [11],55%
same,Broadleaf Weed Control,broadleaf weeds; [11],60%
COc1nc(C)nc(N(C)C(=O)NS(=O)(=O)c2ccccc2C(=O)O)n1 [Tribenuron],Grass Control,grasses; [12],0%
same,Broadleaf Weed Control,broadleaf weeds; [12],93%
same,Yield,QPE-tolerant wheat; [12],58.4 Bu/acre

# From patent US11576381B2, “Composition and a method of using the composition to increase wheat yield” (priority 2019, dated 2023)
